Converted amounts (≈) assume the structure as drawn.
Key:
[1] = pH after 50-fold dilution of glibenclamide 1 mg/ml concentrate into Hartmann's or NaCl; assay type: physicochemical; settings: 1 mg/ml in PEG/Ethanol/Buffer (4/1/5)
Method: This was found even for experiments in which the concentration of buffer was reduced to 5 mM. In order to determine the final pH of diluted solutions resulting from high pH solutions having high concentrations of SUR-active compounds, measurements of the pH of glibenclamide solutions at various levels of dilution were made. […]

physchem = assay: physchem
Method: The solubility of glibenclamide was tested in various solutions and at various pH.

[2] = Glibenclamide solubility in infusion fluids by HPLC, excess drug shaken 24 hours (Table 4); assay type: physicochemical; settings: thermodynamic from solid, 24 hours ambient
Method: The solubility of glibenclamide was determined by high pressure liquid chromatography (HPLC) in a variety of infusion fluids. Excess glibenclamide was shaken with the vehicle for 24 hours at ambient temperature and the glibenclamide content of the supernatant determined by HPLC.
The following infusion vehicles were assessed in these experiments:
1.) 0.9% NaCl at the lowest end of the pH specification (pH 4.5) containing a 50-fold dilution of the PEG/ethanol/meglumine 10 mM pH 9.0 formulation.
2.) 0.9% NaCl at the lowest end of the pH specification (pH 4.5) containing a 50-fold dilution of the PEG/ethanol/diethanolamine 10 mM pH 9.0 formulation.
3.) 0.9% NaCl at the lowest end of the pH specification (pH 4.5) containing a 50-fold dilution of the PEG/ethanol/TRIS 10 mM pH 9.0 formulation.
4.) 0.9% NaCl at the lowest end of the pH specification (pH 4.5).
5.) 0.9% NaCl at the highest end of the pH specification (pH 7.0).
6.) 0.9% NaCl ‘as is’ (pH 5.8).
7.) 0.9% NaCl at the lowest end of the pH specification (pH 4.5) containing a 50-fold dilution of the PEG/ethanol formulation (without buffer or pH adjustment).
8.) 0.9% NaCl at the highest end of the pH specification (pH 7.0) containing a 50-fold dilution of the PEG/ethanol formulation (without buffer or pH adjustment).

[3] = Glibenclamide solubility at various pH in PEG 300/ethanol/meglumine buffer (Table 2, FIG. 1); assay type: physicochemical; settings: for solubility: aqueous with cosolvent or surfactant or cyclodextrin
Method: The solubility of glibenclamide was measured at various pH levels in the presence of different amounts of the buffer meglumine in solutions containing 40% PEG 300, 10% ethanol, and 50% water. […] The pH of the meglumine buffer was adjusted down from pH 11 to the target pH range of between about pH 8 to about pH 10.

[4] = Precipitation on dilution of concentrated glibenclamide solutions; assay type: physicochemical
Method: This formulation may also include a buffer, such as meglumine or diethanolamine. This formulation may also include a surfactant; for example, this solution may include Tween 80 (e.g., less than about 1 ug/ml or less than about 1 ug/mg of glibenclamide). This formulation can be stored in a refrigerator (e.g., at about 2-8° C.) or can be stored at room temperature. This formulation is suitable for dilution; for example, it may be diluted 1:1, or 1:2 for use in bolus injections. This formulation may also be diluted by larger amounts of diluent, to 1:50 for example, for administration of glibenclamide as an infusion over an extended period of time. Dilution with a buffered solution allows the reduction of the solution pH to physiological levels without causing precipitation of glibenclamide. […] Experiments investigating the effect of dilution of relatively high concentrations of SUR-active compounds were performed. […] These solutions were diluted as follows with each of these diluents (0.9% NaCl and 5% glucose solutions): 1 in 2; 1 in 4; 1 in 5; 1 in 10; 1 in 20; and 1 in 50.

COc1ccc(Cl)cc1C(=O)NCCc1ccc(S(=O)(=O)NC(=O)NC2CCCCC2)cc1 [Glibenclamide, N-p-(2-[5-Chloro-2-methoxybenzamido]ethyl) benzenesulfonyl-N′-cyclohexylurea]
pH after a 50-fold Dilution ([1]; Diethanolamine 5 mM pH 8, into Hartmann's pH 6.48 (Expt1)): 6.71
pH after a 50-fold Dilution ([1]; Diethanolamine 5 mM pH 8, into Hartmann's pH 6.60): 7.99
pH after a 50-fold Dilution ([1]; Diethanolamine 5 mM pH 8, into NaCl pH 4.59): 7.27
pH after a 50-fold Dilution ([1]; Diethanolamine 5 mM pH 8, into NaCl pH 6.82): 8.32
pH after a 50-fold Dilution ([1]; Diethanolamine 5 mM pH 8.5, into Hartmann's pH 6.48, Expt 2): 6.82
pH after a 50-fold Dilution ([1]; Diethanolamine 5 mM pH 9, into Hartmann's pH 6.48 (Expt1)): 7.54
pH after a 50-fold Dilution ([1]; Diethanolamine 5 mM pH 9, into Hartmann's pH 6.48, Expt 2): 7.29
pH after a 50-fold Dilution ([1]; Diethanolamine 5 mM pH 9, into NaCl pH 6.82): 8.65
pH after a 50-fold Dilution ([1]; Diethanolamine 5 mM pH 9.5, into Hartmann's pH 6.48 (Expt1)): 6.73
pH after a 50-fold Dilution ([1]; Diethanolamine 5 mM pH 9.5, into Hartmann's pH 6.48, Expt 2): 8.37
pH after a 50-fold Dilution ([1]; Diethanolamine 5 mM pH 9.5, into Hartmann's pH 6.60): 8.85
pH after a 50-fold Dilution ([1]; Diethanolamine 5 mM pH 9.5, into NaCl pH 4.59): 8.72
pH after a 50-fold Dilution ([1]; Diethanolamine 5 mM pH 9.5, into NaCl pH 6.82): 8.88
pH after a 50-fold Dilution ([1]; Diethanolamine 5 mM pH 10, into Hartmann's pH 6.48): 8.46
pH after a 50-fold Dilution ([1]; Diethanolamine 10 mM pH 9, into Hartmann's pH 6.48): 8.38
pH after a 50-fold Dilution ([1]; Diethanolamine 10 mM pH 9, into NaCl pH 4.59): 8.46
pH after a 50-fold Dilution ([1]; Diethanolamine 10 mM pH 10, into Hartmann's pH 6.48): 8.88
pH after a 50-fold Dilution ([1]; Diethanolamine 10 mM pH 10, into NaCl pH 6.82): 9.31
pH after a 50-fold Dilution ([1]; Meglumine 5 mM pH 8, into Hartmann's pH 6.48 (Expt1)): 6.66
pH after a 50-fold Dilution ([1]; Meglumine 5 mM pH 8, into Hartmann's pH 6.60): 6.55
pH after a 50-fold Dilution ([1]; Meglumine 5 mM pH 8, into NaCl pH 4.59): 6.56
pH after a 50-fold Dilution ([1]; Meglumine 5 mM pH 8, into NaCl pH 6.82): 8.21
pH after a 50-fold Dilution ([1]; Meglumine 5 mM pH 8.5, into Hartmann's pH 6.48, Expt 2): 6.64
pH after a 50-fold Dilution ([1]; Meglumine 5 mM pH 9, into Hartmann's pH 6.48 (Expt1)): 6.8
pH after a 50-fold Dilution ([1]; Meglumine 5 mM pH 9, into Hartmann's pH 6.48, Expt 2): 6.96
pH after a 50-fold Dilution ([1]; Meglumine 5 mM pH 9, into NaCl pH 6.82): 8.40
pH after a 50-fold Dilution ([1]; Meglumine 5 mM pH 9.5, into Hartmann's pH 6.48 (Expt1)): 6.93
pH after a 50-fold Dilution ([1]; Meglumine 5 mM pH 9.5, into Hartmann's pH 6.48, Expt 2): 7.68
pH after a 50-fold Dilution ([1]; Meglumine 5 mM pH 9.5, into Hartmann's pH 6.60): 8.49
pH after a 50-fold Dilution ([1]; Meglumine 5 mM pH 9.5, into NaCl pH 4.59): 8.04
pH after a 50-fold Dilution ([1]; Meglumine 5 mM pH 9.5, into NaCl pH 6.82): 8.71
pH after a 50-fold Dilution ([1]; Meglumine 5 mM pH 10, into Hartmann's pH 6.48): 8.32
pH after a 50-fold Dilution ([1]; Meglumine 10 mM pH 9, into Hartmann's pH 6.48): 7.37
pH after a 50-fold Dilution ([1]; Meglumine 10 mM pH 9, into NaCl pH 4.59): 6.35
pH after a 50-fold Dilution ([1]; Meglumine 10 mM pH 10, into Hartmann's pH 6.48): 8.98
pH after a 50-fold Dilution ([1]; Meglumine 10 mM pH 10, into NaCl pH 6.82): 9.54
solubility (physchem; pH 5.3, aqueous buffer, Solubility): 10 µg/mL (≈ 20.2 µM)
solubility (physchem; pH 6.2, aqueous buffer, Solubility): 10 µg/mL (≈ 20.2 µM)
solubility (physchem; pH 6.6, water, Solubility): 70 µg/mL (≈ 142 µM)
solubility (physchem; pH 6.9): 60 µg/mL (≈ 121 µM)
solubility (physchem; pH 6.9, aqueous with cosolvent or surfactant or cyclodextrin, Solubility): 90 µg/mL (≈ 182 µM)
solubility (physchem; pH 7.1, aqueous buffer, Solubility): 10 µg/mL (≈ 20.2 µM)
solubility (physchem; pH 7.2, aqueous with cosolvent or surfactant or cyclodextrin, Solubility): 80 µg/mL (≈ 162 µM)
solubility (physchem; pH 7.6, aqueous with cosolvent or surfactant or cyclodextrin, Solubility): 600 µg/mL (≈ 1210 µM)
solubility (physchem; pH 7.7, aqueous with cosolvent or surfactant or cyclodextrin, Solubility): 10 µg/mL (≈ 20.2 µM)
solubility (physchem; pH 9.7): 860 µg/mL (≈ 1740 µM)
solubility (physchem; pH 9.7, aqueous buffer, Solubility): 860 µg/mL (≈ 1740 µM)
solubility (physchem; pH 9.7, aqueous with cosolvent or surfactant or cyclodextrin, Solubility): 18300 µg/mL (≈ 37000 µM)
solubility (physchem; pH 9.8): 11200 µg/mL (≈ 22700 µM)
solubility (physchem; pH 9.8, aqueous with cosolvent or surfactant or cyclodextrin, Solubility): 14600 µg/mL (≈ 29700 µM)
solubility (physchem; pH 10.1): 2350 µg/mL (≈ 4760 µM)
solubility (physchem; pH 10.1, aqueous buffer, Solubility): 2350 µg/mL (≈ 4760 µM)
solubility (physchem; pH 10.5): 15650 µg/mL (≈ 31700 µM)
solubility (physchem; pH 10.5, aqueous with cosolvent or surfactant or cyclodextrin, Solubility): 13400 µg/mL (≈ 27200 µM)
solubility (physchem; pH 10.7, aqueous buffer, Solubility): 8120 µg/mL (≈ 16400 µM)
solubility (physchem; pH 10.7, aqueous with cosolvent or surfactant or cyclodextrin, Solubility): 13900 µg/mL (≈ 28200 µM)
solubility at 24 h ([2]; 0.9% NaCl infusion fluid, pH 7.8, saline or isotonic, 0.9% NaCl 'as is' (pH 5.8), actual pH 7.80): 150 µg/mL (≈ 304 µM)
solubility at 24 h ([2]; 0.9% NaCl infusion fluid, saline or isotonic, 0.9% NaCl at pH 4.5, actual pH 7.72): 80 µg/mL (≈ 162 µM)
solubility at 24 h ([2]; 0.9% NaCl infusion fluid, saline or isotonic, 0.9% NaCl at pH 7.0, actual pH 7.75): 120 µg/mL (≈ 243 µM)
solubility at 24 h ([2]; pH 7.9, saline or isotonic, NaCl at pH 7.0 + PEG/EtOH, no buffer (50-fold dilution), actual pH 7.90): 140 µg/mL
solubility at 24 h ([2]; saline or isotonic, NaCl at pH 4.5 + PEG/EtOH, no buffer (50-fold dilution), actual pH 7.64): 100 µg/mL
solubility at 24 h ([2]; saline or isotonic, NaCl at pH 4.5 + PEG/EtOH/Diethanolamine 10 mM, pH 9.0 (50-fold dilution), actual pH 8.19): 130 µg/mL
solubility at 24 h ([2]; saline or isotonic, NaCl at pH 4.5 + PEG/EtOH/Meglumine 10 mM, pH 9.0 (50-fold dilution), actual pH 7.92): 150 µg/mL
solubility at 24 h ([2]; saline or isotonic, NaCl at pH 4.5 + PEG/EtOH/TRIS 10 mM, pH 9.0 (50-fold dilution), actual pH 7.89): 150 µg/mL
solubility change with pH (FIG. 1) ([3]; 40% PEG 300, 10% ethanol, 50% water, meglumine buffer, basic pH values greater than about pH 8): greatly increased
solubility ([3]; PEG 300/ethanol/meglumine buffer solution, PEG 300/Ethanol/20 mM Meglumine 40%/10%/50% (final 10 mM), nominal pH 8.5, actual pH 5.4): 100 µg/mL (≈ 202 µM)
solubility ([3]; PEG 300/ethanol/meglumine buffer solution, PEG 300/Ethanol/20 mM Meglumine 40%/10%/50% (final 10 mM), nominal pH 9.0, actual pH 5.6): 130 µg/mL (≈ 263 µM)
solubility ([3]; PEG 300/ethanol/meglumine buffer solution, PEG 300/Ethanol/20 mM Meglumine 40%/10%/50% (final 10 mM), nominal pH 9.5, actual pH 6.4): 120 µg/mL (≈ 243 µM)
solubility ([3]; PEG 300/ethanol/meglumine buffer solution, PEG 300/Ethanol/100 mM Meglumine 40%/10%/50% (final 50 mM), nominal pH 9.5, actual pH 7.7): 410 µg/mL (≈ 830 µM)
solubility ([3]; PEG 300/ethanol/meglumine buffer solution, PEG 300/Ethanol/100 mM Meglumine 40%/10%/50% (final 50 mM), nominal pH 10.0, actual pH 8.8): 2740 µg/mL (≈ 5550 µM)
solubility ([3]; 40% PEG 300, 10% ethanol, 50% water with meglumine buffer, nominal pH 9 (pH 8.8)): 2700 µg/mL (≈ 5470 µM)
solubility ([3]; PEG 300/Ethanol/20 mM Meglumine 40%/10%/50% (final 10 mM), nominal pH 10.0, actual pH 6.9): 980 µg/mL (≈ 1980 µM)
solubility ([3]; PEG 300/Ethanol/50 mM Meglumine 40%/10%/50% (final 25 mM), nominal pH 8.0, actual pH 5.2): 160 µg/mL (≈ 324 µM)
solubility ([3]; PEG 300/Ethanol/50 mM Meglumine 40%/10%/50% (final 25 mM), nominal pH 9.5, actual pH 6.6): 90 µg/mL (≈ 182 µM)
solubility ([3]; PEG 300/Ethanol/50 mM Meglumine 40%/10%/50% (final 25 mM), nominal pH 10.0, actual pH 7.8): 360 µg/mL (≈ 729 µM)
solubility ([3]; PEG 300/Ethanol/100 mM Meglumine 40%/10%/50% (final 50 mM), nominal pH 8.0, actual pH 5.3): 90 µg/mL (≈ 182 µM)
solubility ([3]; PEG 300/Ethanol/100 mM Meglumine 40%/10%/50% (final 50 mM), nominal pH 8.5, actual pH 5.5): 100 µg/mL (≈ 202 µM)
solubility ([3]; PEG 300/Ethanol/100 mM Meglumine 40%/10%/50% (final 50 mM), nominal pH 9.0, actual pH 6.2): 100 µg/mL (≈ 202 µM)
precipitation on dilution ([4]; 2 mg/ml in 100 mM meglumine buffer with 0.9% NaCl or 5% glucose, diluted 1 in 2, 4, 5, 10, 20 and 50 with these diluents): no precipitation
behaviour of drug during and following dilution ([4]; Example 1 formulation (40% PEG 300, 10% Ethanol, 50% water, about pH 9, 1 mg/ml) diluted 1:50 with Hartman's solution): remained in solution
